ChEMBL document CHEMBL2202958, “Development of potent macrocyclic inhibitors of genotype 3a HCV NS3/4A protease” (Bioorg Med Chem Lett, 2012)

Key:
[1] = Inhibition of HCV3a NS3/4A protease; set-up: species or system Hepatitis C virus subtype 3a
[2] = tested on: Hepatitis C virus; assay: Antiviral activity against HCV1b by cell based replicon assay; type: functional, organism-based, Hepacivirus hominis; conditions: genotype 1b
[3] = tested on: Hepatitis C virus; assay: Inhibition of HCV1b NS3/4A protease; set-up: species or system Hepatitis C virus subtype 1b
[4] = Drug level in Sprague-Dawley rat liver at 5 mg/kg, po after 4 hrs; type: ADME, organism-based; set-up: dose 5 mg/kg, route oral; conditions: read-out: Drug uptake

Ki [1] | IC50 [2] | concentration at 4 h [4] | Structure (SMILES) | Ki [3]
475 nM | 4.5 nM | – | C=C[C@@H]1C[C@]1(NC(=O)[C@@H]1C[C@@H]2CN1C(=O)[C@H](C(C)(C)C)NC(=O)OCCC/C=C/c1ccc3ccnc(c3c1)O2)C(=O)NS(=O)(=O)C1CC1 | 0.04 nM
5.8 nM | – | 0.304 µM | C=C[C@@H]1C[C@]1(NC(=O)[C@@H]1C[C@@H]2CN1C(=O)[C@H](C(C)C)NC(=O)N(C)CCCCCc1cc3c(cc(-c4ccccc4)nc3cc1OC)O2)C(=O)NS(=O)(=O)C1CC1 | < 0.16 nM
17 nM | – | 41 µM | C=C[C@@H]1C[C@]1(NC(=O)[C@@H]1C[C@@H]2CN1C(=O)[C@H](C1CCCC1)NC(=O)OCC(C)(C)C/C=C/c1cc3c(cc(-c4ccccc4)nc3cc1OC)O2)C(=O)NS(=O)(=O)C1CC1 | < 0.16 nM
